Source: publication PMC4513130, “Neuronal Calcium Sensor-1 Binds the D2 Dopamine Receptor and G-protein-coupled Receptor Kinase 1 (GRK1) Peptides Using Different Modes of Interactions” (The Journal of Biological Chemistry, 2015)

Columns and labels:
[1] = Size exclusion chromatography-multiangle laser light scattering (MALLS); type: physicochemical; details: SEC-MALLS, Superdex 75; 20 mM Tris-HCl, 150 mM NaCl, 1 mM CaCl2, pH 7.5; 1.5 mg/ml injected
Protocol: Measurements were performed on a Dionex BioLC HPLC connected to an 18-angle light scattering detector and a differential refractometer (DAWN HELEOS-II and OPTILab rEX, Wyatt). A Superdex 75 10/300 GL column (GE Healthcare) was used in 20 mM Tris-HCl, 150 mM NaCl, 1 mM CaCl2, pH 7.5, at a flow rate of 0.75 ml/min. Sample volumes of 1 ml were injected at a concentration of 1.5 mg/ml. Samples eluting from the column passed through an in-line DAWN HELEOS-II laser photometer (λ = 658 nm) and an OPTILab rEX refractometer with a QELS dynamic light scattering attachment. Light scattering intensity and eluant refractive index (concentration) were analyzed using ASTRA version 5.3.4.13 software to give a weight-averaged molecular mass. To determine the detector delay volumes and normalization coefficients for the MALLS detector, a BSA sample (Sigma A-8531) was used as reference.

NCS-1ΔCT = test: NMR (1H-15N HSQC) of Ca2+/NCS-1ΔCT, titration with D2R peptide; type: binding, rat; details: 15N Ca2+/NCS-1ΔCT alone
Protocol: NCS-1 was prepared in 50 mM Tris-HCl buffer, pH 6.8, in the presence of 5 mM MgCl2 and 5 mM CaCl2. NMR spectra were recorded at 27 °C on Bruker DRX 800 and 600 MHz Avance II spectrometers equipped with CryoProbes. Data were processed using the Bruker software TopSpin and analyzed using CCPN software ([26]). Sequence-specific backbones were obtained using the HNCA, HN(CO)CA, HNCO, HN(CA)CO, CBCA(CO)NH, CBCANH, HBHA(CO)NH, and HCCH-TOCSY experiments.
FIGURE 9. NMR spectra and structure of rat Ca^2+/NCS-1ΔCT (PDB code 4YRU). A,^1H-^15N heteronuclear single quantum coherence spectra of ^15N Ca^2+/NCS-1ΔCT; B, in the presence of 5-fold excess of D2R peptide in 50 mM Tris-HCl buffer, 50 mM NaCl, 5 mM CaCl2, pH 6.5, 298 K. C, structure of the dimer of NCS-1ΔCT. Left, one monomer is shown as a backbone schematic and the other as a surface representation. Right, view of the hydrophobic binding site. Residues from helix 3 and the EF1/EF2 loop (Phe-48–Phe-58) are colored red, and residues in the EF3/EF4 loop region (Val-136–Pro-139) are colored brown. Conserved hydrophobic surface-exposed residues in the N-lobe site, which are involved with binding the D2R peptide, are highlighted in yellow (similar to those highlighted in Fig. 4B). D2R peptide in the N-site is shown with magenta ribbon for comparison. Ca^2+ ions are shown as brown spheres.

[2] = Solubility and aggregation
NCS-1 = test: Crystal structure of peptide complex with Ca2+/NCS-1 (copies bound, buried surface area); type: binding, Rattus norvegicus
Protocol: Purified proteins were equilibrated against 20 mM Tris-HCl, pH 7.5, and concentrated to 1 mM final protein concentration before initiating crystallization trials. For crystallization of the peptide complexes, a 2-fold excess of peptide was added to the protein solution. Crystals were grown at 20 °C using the sitting drop vapor diffusion method. NCS-1 was crystallized in 0.1 M sodium cacodylate, pH 6.5, 0.2 M sodium acetate, and 30% (w/v) PEG 8000, similar to the conditions previously reported ([27]). […]
For the NCS-1·D2R complex, molecular replacement used the structure of human NCS-1 (human and rat NCS-1 have 99% sequence identity; PDB accession 1G8I) and PHASER ([31]), as implemented from within PHENIX ([32]). […] At this stage, electron density for the helix for chain B was readily apparent, and a model for the helix was built in manually using COOT ([33]). […]
The structure of the NCS-1·GRK1 complex was determined using the coordinates from the A chain of the NCS-1 apoprotein and the program MOLREP ([38]), as implemented from within the CCP4 program suite ([39]). […] Electron density for a single GRK1 peptide per NCS-1 monomer, in a helical conformation, was readily detectable. […]
Data for NCS-1ΔCT were processed using MOSFLM ([37]) and SCALA ([30]). […] The four molecular copies of NCS-1ΔCT in this crystal form were readily identified in this way. […]

recoverin = details: NMR structure, PDB 2I94; orientation opposite to that in NCS-1·GRK1 complex; cited from earlier work
Excerpt: The C-terminal α-helix in both complexes form one edge of the hydrophobic groove. […] Somewhat surprising are the differences observed between the NCS-1 ...

Substance: NCS-1ΔCT: C-terminal truncated mutant of NCS-1, residues Ser-178–Val-190 deleted
- solution state [1]: polydisperse
- NMR spectra of NCS-1ΔCT (NCS-1ΔCT): significant concentration-dependent line broadening

Substance: TFNIEFRKAFLKILHC [reference compound]
- solubility ([2]; in water): insoluble in water

Substance: MDFGSLETVVANSAFIAARGSFDGS [GRK1 peptide]
- buried surface area of peptide (NCS-1; GRK1 peptide in hydrophobic groove, PDB 5AFP): 921 Å^2
- copies of peptide bound per NCS-1 molecule (NCS-1; crystal structure, Ca2+/NCS-1, 2-fold excess of peptide): one
- binding site on recoverin (recoverin): binding only in the N-lobe site
- aggregation [2]: propensity to aggregate
